According to ChEMBL document CHEMBL5247610, “Discovery of 5-((4-(pyridin-3-yl)pyrimidin-2-yl)amino)-1H-indole-2-carboxamide derivatives as novel anti-cancer agents targeting Nur77” (Eur J Med Chem, 2022):
Activity calls are given as the source filed them. No cut-off for these calls is given here.

Tests used:
HepG2 [1] = assay: Antiproliferative activity against human HepG2 cells assessed as cell viability at 10 uM incubated for 48 hrs by MTT assay; format: functional; details: read-out: Activity
HeLa [2] = assay: Antiproliferative activity against human HeLa cells assessed as cell viability at 10 uM incubated for 48 hrs by MTT assay; format: functional; details: read-out: Activity
[3] = Cytotoxicity against human L02 cells assessed as cell viability at 10 uM incubated for 48 hrs by MTT assay; format: toxicity, cell-based; details: read-out: Activity
[4] = target: T1, Nuclear receptor subfamily 4immunitygroup A member 1 (Homo sapiens, UniProt P22736); assay: Binding affinity to Nur77 (unknown origin)
T1 sequence (P22736 whole entry, the tested form may be a part): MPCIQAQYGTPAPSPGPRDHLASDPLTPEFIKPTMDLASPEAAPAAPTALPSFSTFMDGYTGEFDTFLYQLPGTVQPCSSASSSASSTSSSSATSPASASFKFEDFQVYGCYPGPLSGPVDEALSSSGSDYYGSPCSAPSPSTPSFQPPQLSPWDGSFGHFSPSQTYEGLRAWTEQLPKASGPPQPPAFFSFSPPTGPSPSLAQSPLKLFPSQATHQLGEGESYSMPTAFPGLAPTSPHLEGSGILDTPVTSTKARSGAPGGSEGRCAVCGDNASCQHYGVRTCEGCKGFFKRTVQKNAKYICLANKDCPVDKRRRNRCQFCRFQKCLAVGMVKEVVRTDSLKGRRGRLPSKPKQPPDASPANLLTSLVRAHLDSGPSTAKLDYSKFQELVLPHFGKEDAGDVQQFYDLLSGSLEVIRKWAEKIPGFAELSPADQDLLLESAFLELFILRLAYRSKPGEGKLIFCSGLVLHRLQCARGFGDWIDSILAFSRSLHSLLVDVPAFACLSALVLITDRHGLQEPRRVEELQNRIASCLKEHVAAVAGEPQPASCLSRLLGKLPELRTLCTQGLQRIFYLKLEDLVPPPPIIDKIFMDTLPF

[5] = target: T1, Nuclear receptor subfamily 4immunitygroup A member 1; assay: Binding affinity to Nur77-LBD (unknown origin)
MDA-MB-231 = assay: Antiproliferative activity against human MDA-MB-231 cells assessed as reduction in cell viability incubated for 48 hrs by MTT assay; format: functional, cell-based; details: MDA-MB-231, 48 h
SMMC-7721 = assay: Antiproliferative activity against human SMMC-7721 cells assessed as reduction in cell viability incubated for 48 hrs by MTT assay; format: functional, cell-based; details: SMMC-7721, 48 h
[6] = target: T1, Nuclear receptor subfamily 4immunitygroup A member 1; assay: Binding affinity to pBind-Nur77-LBD (unknown origin) transfected in HEK293T cells co-transfected with pG5-Luc assessed as inhibition of Nur77 transcriptional activity by measuring inhibition of Nur77-driven luciferase activity at 2 uM incubated for 12 hrs by luciferase reporter gene assay; format: cell-based; details: filed as modulator
[7] = Toxicity in Zebra fish AB embryo assessed as mortality rate at 0.5 uM incubated for 24 hrs; set-up: species or system Danio rerio; details: zebrafish, read-out: Activity
HepG2 [8] = assay: Antiproliferative activity against human HepG2 cells assessed as reduction in cell viability incubated for 48 hrs by MTT assay; format: functional, cell-based; details: HepG2, 48 h
[9] = Selectivity index, ratio of IC50 for human L02 cells to IC50 for human MDA-MB-231 cells by MTT assay; format: toxicity; details: L02 cells versus MDA-MB-231 cells, read-out: Ratio IC50
[10] = Selectivity index, ratio of IC50 for human L02 cells to IC50 for human HepG2 cells by MTT assay; format: toxicity; details: L02 cells versus HepG2 cells, read-out: Ratio IC50
Huh-7 = assay: Antiproliferative activity against human Huh-7 cells assessed as reduction in cell viability incubated for 48 hrs by MTT assay; format: functional, cell-based; details: Huh-7, 48 h
[11] = Toxicity in Zebra fish AB embryo assessed as mortality rate at 0.5 uM incubated for 72 hrs; set-up: species or system Danio rerio; details: zebrafish, read-out: Activity
[12] = Selectivity index, ratio of IC50 for human L02 cells to IC50 for human A549 cells by MTT assay; format: toxicity; details: L02 cells versus A549 cells, read-out: Ratio IC50
[13] = Selectivity index, ratio of IC50 for human L02 cells to IC50 for human Huh-7 cells by MTT assay; format: toxicity; details: L02 cells versus Huh-7 cells, read-out: Ratio IC50
[14] = Selectivity index, ratio of IC50 for human L02 cells to IC50 for human HeLa cells by MTT assay; format: toxicity; details: L02 cells versus HeLa cells, read-out: Ratio IC50
[15] = Cytotoxicity against human L02 cells assessed as reduction in cell viability incubated for 48 hrs by MTT assay; format: toxicity, cell-based
HeLa [16] = assay: Antiproliferative activity against human HeLa cells assessed as reduction in cell viability incubated for 48 hrs by MTT assay; format: functional, cell-based
[17] = Toxicity in Zebra fish AB embryo assessed as mortality rate at 1 uM incubated for 24 hrs; set-up: species or system Danio rerio; details: zebrafish, read-out: Activity
A549 = assay: Antiproliferative activity against human A549 cells assessed as reduction in cell viability incubated for 48 hrs by MTT assay; format: functional, cell-based; details: A549, 48 h
[18] = Selectivity index, ratio of IC50 for human L02 cells to IC50 for human SMMC-7721 cells by MTT assay; format: toxicity; details: L02 cells versus SMMC-7721 cells, read-out: Ratio IC50
[19] = Toxicity in Zebra fish AB embryo assessed as mortality rate at 1 uM incubated for 72 hrs; set-up: species or system Danio rerio; details: zebrafish, read-out: Activity

Row | SMILES | viability at 10 µM (HepG2 [1]) | viability at 10 µM (HeLa [2]) | viability at 48 h, 10 µM [3] | further results
1 | O=C(NCCN1CCCCC1)c1cc2cc(Nc3nccc(-c4cccnc4)n3)ccc2[nH]1 | 53.7% | 24.9% | 59.1% | 
2 | Cc1ccccc1NC(=O)c1cc2cc(Nc3nccc(-c4cccnc4)n3)ccc2[nH]1 | 90.4% | 35.4% | 84.1% | 
3 | O=C(Nc1cncnc1)c1cc2cc(Nc3nccc(-c4cccnc4)n3)ccc2[nH]1 | 81.6% | 108% | 76.2% | 
4 | COc1cc(NC(=O)c2cc3cc(Nc4nccc(-c5cccnc5)n4)ccc3[nH]2)cc(OC)c1 | 40.8% | 29.7% | 43.6% | 
5 | O=C(N/N=C/c1ccncc1)c1cc2cc(Nc3ccnc4ccccc34)ccc2[nH]1 |  |  |  | Kd [4]: 1170 nM
6 | Nc1ccccc1NC(=O)c1cc2cc(Nc3nccc(-c4cccnc4)n3)ccc2[nH]1 | 76.4% | 33.2% | 71.1% | 
7 | O=C(Nc1cc(Br)ccn1)c1cc2cc(Nc3nccc(-c4cccnc4)n3)ccc2[nH]1 | 85.9% | 115% | 81.1% | 
8 | COc1ccc2ccccc2c1/C=N/NC(=O)c1cc2cc(Nc3cc(C)nc4c(OC)cccc34)ccc2[nH]1 |  |  |  | Kd [5]: 2250 nM
9 | COc1cccc(NC(=O)c2cc3cc(Nc4nccc(-c5cccnc5)n4)ccc3[nH]2)c1 | 55.2% | 30.2% | 68.6% | 
10 | Cc1ccc(NC(=O)c2cc3cc(Nc4nccc(-c5cccnc5)n4)ccc3[nH]2)c(N)c1 | 36.2% | 29.5% | 38.3% | 
11 | COc1cc(NC(=O)c2cc3cc(Nc4nccc(-c5cccnc5)n4)ccc3[nH]2)cc(OC)c1OC | 83.3% | 44.6% | 43.6% | 
12 | CCN(CC)CCCNC(=O)c1cc2cc(Nc3nccc(-c4cccnc4)n3)ccc2[nH]1 | 67.8% | 39.4% | 82.6% | 
13 | CCCCNC(=O)c1cc2cc(Nc3nccc(-c4cccnc4)n3)ccc2[nH]1 | 107% | 104% | 102% | 
14 | Cc1ccc(NC(=O)c2cc3cc(Nc4nccc(-c5cccnc5)n4)ccc3[nH]2)cc1Nc1nccc(-c2cccnc2)n1 | 86.5% | 95.9% | 79.6% | 
15 | O=C(Nc1ccc(F)c(F)c1F)c1cc2cc(Nc3nccc(-c4cccnc4)n3)ccc2[nH]1 | 114% | 99.8% | 109% | 
16 | CC1=C(O)C(=O)C=C2C1=CC=C1[C@@]2(C)CC[C@@]2(C)[C@@H]3C[C@](C)(C(=O)O)CC[C@]3(C)CC[C@]12C [CELASTROL] | 18.7% | 49.2% | 13% | IC50 (MDA-MB-231): 1080 nM; IC50 (SMMC-7721): 6040 nM; Activity [6]: Active; mortality at 24 h, 0.5 µM [7]: 30%; IC50 (HepG2 [8]): 3730 nM; selectivity ratio [9]: 1.04; selectivity ratio [10]: 0.3; IC50 (Huh-7): 4450 nM; mortality at 72 h, 0.5 µM [11]: 94%; selectivity ratio [12]: 0.22; selectivity ratio [13]: 0.25; selectivity ratio [14]: 0.87; IC50 at 48 h [15]: 1120 nM; IC50 (HeLa [16]): 1210 nM; mortality at 24 h, 1 µM [17]: 100%; IC50 (A549): 4990 nM; selectivity ratio [18]: 0.19; mortality at 72 h, 1 µM [19]: 100%
17 | O=C(NCc1cccc(F)c1)c1cc2cc(Nc3nccc(-c4cccnc4)n3)ccc2[nH]1 | 82.5% | 80% | 71.1% | 
18 | COc1ccc(NC(=O)c2cc3cc(Nc4nccc(-c5cccnc5)n4)ccc3[nH]2)c(C)c1 | 82.9% | 54.8% | 69% | 
19 | Cc1ccc(NC(=O)c2cc3cc(Nc4nccc(-c5cccnc5)n4)ccc3[nH]2)c(C)c1 | 59.8% | 38.3% | 48.3% | 
20 | Nc1ccc(Cl)cc1NC(=O)c1cc2cc(Nc3nccc(-c4cccnc4)n3)ccc2[nH]1 | 97.7% | 89.5% | 62.3% | 
21 | Cc1ccc(NC(=O)c2cc3cc(Nc4nccc(-c5cccnc5)n4)ccc3[nH]2)cc1C | 69.9% | 43.4% | 55.8% | 
22 | O=C(NC12CC3CC(CC(C3)C1)C2)c1cc2cc(Nc3nccc(-c4cccnc4)n3)ccc2[nH]1 | 83.4% | 124% | 81.3% | 
23 | COc1ccc(NC(=O)c2cc3cc(Nc4nccc(-c5cccnc5)n4)ccc3[nH]2)cc1OC | 109% | 74.4% | 91.9% | 
24 | O=C(NCc1ccccc1)c1cc2cc(Nc3nccc(-c4cccnc4)n3)ccc2[nH]1 | 113% | 82% | 94.8% | 
25 | O=C(Nc1ccccc1)c1cc2cc(Nc3nccc(-c4cccnc4)n3)ccc2[nH]1 | 84.4% | 46.4% | 70.9% | 
26 | O=C(c1cc2cc(Nc3nccc(-c4cccnc4)n3)ccc2[nH]1)N1CCOCC1 | 78.2% | 36.8% | 62.3% | 
